Laboratory results: ChEMBL document CHEMBL1133898 (Bioorg Med Chem Lett, 2001)

Biological target: T1, Sodium-dependent serotonin transporter (Rattus norvegicus, UniProt P31652)
Experiment: Evaluated for ability to inhibit high affinity uptake of [3H]5-HT using rat nerve endings obtained from brain regions enriched in serotonin transporter (5HTT)
Type: functional

T1 sequence (P31652 whole entry): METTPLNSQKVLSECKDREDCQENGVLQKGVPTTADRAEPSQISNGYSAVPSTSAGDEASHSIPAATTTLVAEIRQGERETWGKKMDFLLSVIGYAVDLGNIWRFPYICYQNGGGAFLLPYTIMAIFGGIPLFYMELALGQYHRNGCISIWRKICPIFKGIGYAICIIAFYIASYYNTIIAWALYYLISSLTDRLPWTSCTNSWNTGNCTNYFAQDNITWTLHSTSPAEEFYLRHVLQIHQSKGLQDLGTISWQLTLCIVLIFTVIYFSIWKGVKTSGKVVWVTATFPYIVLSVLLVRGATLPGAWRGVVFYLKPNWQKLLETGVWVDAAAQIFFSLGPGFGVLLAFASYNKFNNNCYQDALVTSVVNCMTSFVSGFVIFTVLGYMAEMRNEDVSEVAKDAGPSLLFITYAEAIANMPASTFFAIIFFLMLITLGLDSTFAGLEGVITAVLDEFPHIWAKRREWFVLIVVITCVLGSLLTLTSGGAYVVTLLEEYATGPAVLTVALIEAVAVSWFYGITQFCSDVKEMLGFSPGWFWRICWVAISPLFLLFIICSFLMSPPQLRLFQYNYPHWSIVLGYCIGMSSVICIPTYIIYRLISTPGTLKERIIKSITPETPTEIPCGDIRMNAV

SMILES | IC50 [nM]
CN1CC[C@@H](c2ccc(Cl)cc2)[C@H](c2nc(-c3ccccc3)no2)C1 | > 3000
CN1CC[C@H](c2ccc(Cl)cc2)[C@@H](c2nc(-c3ccccc3)no2)C1 | > 3000

Biological target: T2, Sodium-dependent dopamine transporter (Rattus norvegicus, UniProt P23977)
Experiment: Inhibition of high affinity uptake of [3H]DA using rat nerve endings obtained from brain regions enriched in DAT.

T2 sequence (P23977 whole entry): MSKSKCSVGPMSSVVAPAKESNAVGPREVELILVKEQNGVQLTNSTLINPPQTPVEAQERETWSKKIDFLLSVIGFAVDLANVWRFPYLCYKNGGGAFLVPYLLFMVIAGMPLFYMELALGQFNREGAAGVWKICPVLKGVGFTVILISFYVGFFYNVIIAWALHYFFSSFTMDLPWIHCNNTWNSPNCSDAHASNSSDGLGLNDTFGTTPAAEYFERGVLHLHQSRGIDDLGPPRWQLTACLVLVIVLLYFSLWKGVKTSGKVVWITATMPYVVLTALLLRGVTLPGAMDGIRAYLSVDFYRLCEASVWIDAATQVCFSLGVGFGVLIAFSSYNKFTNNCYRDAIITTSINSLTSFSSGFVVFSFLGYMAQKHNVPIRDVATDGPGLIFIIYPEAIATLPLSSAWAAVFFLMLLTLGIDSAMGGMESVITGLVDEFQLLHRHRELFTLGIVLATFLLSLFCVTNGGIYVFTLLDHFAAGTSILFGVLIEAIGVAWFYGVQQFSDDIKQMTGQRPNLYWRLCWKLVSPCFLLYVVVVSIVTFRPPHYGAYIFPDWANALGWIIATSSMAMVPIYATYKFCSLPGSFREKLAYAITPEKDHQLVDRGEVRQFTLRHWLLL

SMILES | Ki [nM]
CC(C)c1noc([C@H]2CN(C)CC[C@@H]2c2ccc(Cl)cc2)n1 | 391
COc1ccc(-c2noc([C@H]3CN(C)CC[C@@H]3c3ccc(Cl)cc3)n2)cc1 | > 3000
Cc1noc([C@@H]2CN(C)CC[C@H]2c2ccc(Cl)cc2)n1 | 955
COC(=O)[C@@H]1CN(C)CC[C@H]1c1ccc(Cl)cc1 | 2930
CN1CC[C@@H](c2ccc(Cl)cc2)[C@H](c2nc(-c3ccccc3)no2)C1 | 1710
CC(C)c1noc([C@@H]2CN(C)CC[C@H]2c2ccc(Cl)cc2)n1 | 3590
CN1CC[C@@H](c2ccc(Cl)cc2)[C@H](c2nc(-c3ccc(Br)cc3)no2)C1 | > 3000
CN1CC[C@@H](c2ccc(Cl)cc2)[C@H](c2nc(-c3ccc4c(c3)OCO4)no2)C1 | > 3000
COc1ccc(-c2noc([C@@H]3CN(C)CC[C@H]3c3ccc(Cl)cc3)n2)cc1 | > 3000
CN1CC[C@H](c2ccc(Cl)cc2)[C@@H](c2nc(-c3ccc4c(c3)OCO4)no2)C1 | > 3000
CN1CC[C@H](c2ccc(Cl)cc2)[C@@H](c2nc(-c3ccc(Br)cc3)no2)C1 | > 3000
CN1CC[C@@H](c2ccc(Cl)cc2)[C@H](c2nc(-c3ccc(Cl)cc3)no2)C1 | > 3000
CN1CC[C@H](c2ccc(Cl)cc2)[C@@H](c2nc(-c3ccc(Cl)cc3)no2)C1 | > 3000
CN1CC[C@H](c2ccc(Cl)cc2)[C@@H](c2nc(-c3ccccc3)no2)C1 | 497
Cc1noc([C@H]2CN(C)CC[C@@H]2c2ccc(Cl)cc2)n1 | 187

Biological target: T2, Sodium-dependent dopamine transporter
Experiment: Inhibitory concentration binding to dopamine transporter using 0.5 nM [3H]WIN-35428

SMILES | IC50 [nM]
CN1CC[C@H](c2ccc(Cl)cc2)[C@@H](c2nc(-c3ccc(Cl)cc3)no2)C1 | 4.06

Biological target: T3, Norepinephrine transporter (Rattus norvegicus, UniProt Q9WTR4)
Experiment: (§1) Inhibitory concentration binding to Norepinephrine transporter using 0.2 nM […]

T3 sequence (Q9WTR4 whole entry): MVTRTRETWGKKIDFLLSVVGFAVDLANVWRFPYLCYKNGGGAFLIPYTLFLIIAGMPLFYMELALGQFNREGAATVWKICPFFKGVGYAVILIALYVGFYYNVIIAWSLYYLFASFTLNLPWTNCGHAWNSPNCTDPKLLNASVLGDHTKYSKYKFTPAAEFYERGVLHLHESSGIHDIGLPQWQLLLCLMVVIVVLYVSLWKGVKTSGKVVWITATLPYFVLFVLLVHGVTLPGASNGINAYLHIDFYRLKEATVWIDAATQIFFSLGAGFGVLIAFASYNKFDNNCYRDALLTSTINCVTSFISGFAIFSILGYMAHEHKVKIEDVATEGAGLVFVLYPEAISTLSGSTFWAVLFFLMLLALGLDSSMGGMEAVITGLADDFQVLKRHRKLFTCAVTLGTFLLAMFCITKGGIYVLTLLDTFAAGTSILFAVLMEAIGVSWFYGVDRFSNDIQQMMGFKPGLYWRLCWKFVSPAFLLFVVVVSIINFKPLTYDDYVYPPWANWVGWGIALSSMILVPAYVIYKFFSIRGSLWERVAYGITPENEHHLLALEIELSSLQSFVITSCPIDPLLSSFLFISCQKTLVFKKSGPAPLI

SMILES | IC50 [nM]
Cc1noc([C@H]2CN(C)CC[C@@H]2c2ccc(Cl)cc2)n1 | 363

Biological target: T3, Norepinephrine transporter
Experiment: as §1
Type: functional

SMILES | IC50 [nM]
CN1CC[C@H](c2ccc(Cl)cc2)[C@@H](c2nc(-c3ccc(Cl)cc3)no2)C1 | 4070

Biological target: T3, Norepinephrine transporter
Experiment: Displacement of [3H]NE from Norepinephrine transporter of rat brain

SMILES | Ki [nM]
CC(C)c1noc([C@H]2CN(C)CC[C@@H]2c2ccc(Cl)cc2)n1 | 778
COc1ccc(-c2noc([C@H]3CN(C)CC[C@@H]3c3ccc(Cl)cc3)n2)cc1 | > 3000
COC(=O)[C@H]1CN(C)CC[C@@H]1c1ccc(Cl)cc1 | 252
COC(=O)[C@@H]1CN(C)CC[C@H]1c1ccc(Cl)cc1 | 396
CC(C)c1noc([C@@H]2CN(C)CC[C@H]2c2ccc(Cl)cc2)n1 | 2680
CN1CC[C@@H](c2ccc(Cl)cc2)[C@H](c2nc(-c3ccc(Br)cc3)no2)C1 | > 3000
CN1CC[C@@H](c2ccc(Cl)cc2)[C@H](c2nc(-c3ccc4c(c3)OCO4)no2)C1 | > 3000
COc1ccc(-c2noc([C@@H]3CN(C)CC[C@H]3c3ccc(Cl)cc3)n2)cc1 | > 3000
CN1CC[C@H](c2ccc(Cl)cc2)[C@@H](c2nc(-c3ccc4c(c3)OCO4)no2)C1 | > 3000
CN1CC[C@H](c2ccc(Cl)cc2)[C@@H](c2nc(-c3ccc(Br)cc3)no2)C1 | > 3000
CN1CC[C@@H](c2ccc(Cl)cc2)[C@H](c2nc(-c3ccc(Cl)cc3)no2)C1 | > 3000
CN1CC[C@H](c2ccc(Cl)cc2)[C@@H](c2nc(-c3ccc(Cl)cc3)no2)C1 | > 3000
Cc1noc([C@H]2CN(C)CC[C@@H]2c2ccc(Cl)cc2)n1 | 256

Biological target: T1, Sodium-dependent serotonin transporter
Experiment: Evaluated for its ability to inhibit high affinity uptake of [3H]-5-HT using rat nerve endings obtained from brain regions enriched in serotonin transporter (5HTT)
Type: functional

SMILES | IC50 [nM]
Cc1noc([C@@H]2CN(C)CC[C@H]2c2ccc(Cl)cc2)n1 | > 3000

Biological target: T2, Sodium-dependent dopamine transporter
Experiment: Displacement of [3H][…] from dopamine transporter (DAT) of rat striatal membrane

SMILES | Ki [nM]
CC(C)c1noc([C@H]2CN(C)CC[C@@H]2c2ccc(Cl)cc2)n1 | 494
COc1ccc(-c2noc([C@H]3CN(C)CC[C@@H]3c3ccc(Cl)cc3)n2)cc1 | > 3000
COC(=O)[C@H]1CN(C)CC[C@@H]1c1ccc(Cl)cc1 | 315
COC(=O)[C@@H]1CN(C)CC[C@H]1c1ccc(Cl)cc1 | 2000
CC(C)c1noc([C@@H]2CN(C)CC[C@H]2c2ccc(Cl)cc2)n1 | 2900
CN1CC[C@@H](c2ccc(Cl)cc2)[C@H](c2nc(-c3ccc(Br)cc3)no2)C1 | > 3000
CN1CC[C@@H](c2ccc(Cl)cc2)[C@H](c2nc(-c3ccc4c(c3)OCO4)no2)C1 | > 3000
COc1ccc(-c2noc([C@@H]3CN(C)CC[C@H]3c3ccc(Cl)cc3)n2)cc1 | > 3000
CN1CC[C@H](c2ccc(Cl)cc2)[C@@H](c2nc(-c3ccc4c(c3)OCO4)no2)C1 | > 3000
CN1CC[C@H](c2ccc(Cl)cc2)[C@@H](c2nc(-c3ccc(Br)cc3)no2)C1 | > 3000
CN1CC[C@@H](c2ccc(Cl)cc2)[C@H](c2nc(-c3ccc(Cl)cc3)no2)C1 | > 3000
CN1CC[C@H](c2ccc(Cl)cc2)[C@@H](c2nc(-c3ccc(Cl)cc3)no2)C1 | > 3000
Cc1noc([C@H]2CN(C)CC[C@@H]2c2ccc(Cl)cc2)n1 | 201

Biological target: T3, Norepinephrine transporter
Experiment: Evaluated for its ability to inhibit high affinity uptake of [3H]NE using rat nerve endings obtained from brain regions enriched in norepinephrine transporter (NET)
Type: functional

SMILES | IC50 [nM]
Cc1noc([C@@H]2CN(C)CC[C@H]2c2ccc(Cl)cc2)n1 | > 1000

Biological target: T1, Sodium-dependent serotonin transporter
Experiment: Displacement of [3H]5-HT from serotonin transporter of rat brain

SMILES | Ki [nM]
CC(C)c1noc([C@H]2CN(C)CC[C@@H]2c2ccc(Cl)cc2)n1 | 2920
COc1ccc(-c2noc([C@H]3CN(C)CC[C@@H]3c3ccc(Cl)cc3)n2)cc1 | > 3000
COC(=O)[C@H]1CN(C)CC[C@@H]1c1ccc(Cl)cc1 | 8490
COC(=O)[C@@H]1CN(C)CC[C@H]1c1ccc(Cl)cc1 | 930
CC(C)c1noc([C@@H]2CN(C)CC[C@H]2c2ccc(Cl)cc2)n1 | 1220
CN1CC[C@@H](c2ccc(Cl)cc2)[C@H](c2nc(-c3ccc(Br)cc3)no2)C1 | > 3000
CN1CC[C@@H](c2ccc(Cl)cc2)[C@H](c2nc(-c3ccc4c(c3)OCO4)no2)C1 | > 3000
COc1ccc(-c2noc([C@@H]3CN(C)CC[C@H]3c3ccc(Cl)cc3)n2)cc1 | > 3000
CN1CC[C@H](c2ccc(Cl)cc2)[C@@H](c2nc(-c3ccc4c(c3)OCO4)no2)C1 | > 3000
CN1CC[C@H](c2ccc(Cl)cc2)[C@@H](c2nc(-c3ccc(Br)cc3)no2)C1 | > 3000
CN1CC[C@@H](c2ccc(Cl)cc2)[C@H](c2nc(-c3ccc(Cl)cc3)no2)C1 | > 3000
CN1CC[C@H](c2ccc(Cl)cc2)[C@@H](c2nc(-c3ccc(Cl)cc3)no2)C1 | > 3000
Cc1noc([C@H]2CN(C)CC[C@@H]2c2ccc(Cl)cc2)n1 | 5960

Biological target: T1, Sodium-dependent serotonin transporter
Experiment: Inhibitory concentration binding to Serotonin transporter using 0.5 nM […]

SMILES | IC50 [nM]
CN1CC[C@H](c2ccc(Cl)cc2)[C@@H](c2nc(-c3ccc(Cl)cc3)no2)C1 | 404
Cc1noc([C@H]2CN(C)CC[C@@H]2c2ccc(Cl)cc2)n1 | 2580

Biological target: T3, Norepinephrine transporter
Experiment: Evaluated for ability to inhibit high affinity uptake of [3H]-NE using rat nerve endings obtained from brain regions enriched in Norepinephrine transporter
Type: functional

SMILES | IC50 [nM]
CN1CC[C@@H](c2ccc(Cl)cc2)[C@H](c2nc(-c3ccccc3)no2)C1 | > 3000
CN1CC[C@H](c2ccc(Cl)cc2)[C@@H](c2nc(-c3ccccc3)no2)C1 | > 10000

Biological target: T2, Sodium-dependent dopamine transporter
Experiment: Inhibitory concentration binding to Dopamine transporter using 0.5 nM [3H]WIN-35428

SMILES | IC50 [nM]
Cc1noc([C@H]2CN(C)CC[C@@H]2c2ccc(Cl)cc2)n1 | 4.05
